From the NIST ThermoML archive (doi:10.1021/je060137q)

Columns and labels:
[1] = xn = mol fraction of the nth substance listed; settings: for surface tension liquid-gas: Pendant drop shape; for mass density: 101 kPa, Liquid
[2] = for mass density: 101 kPa, Liquid; for surface tension liquid-gas: Pendant drop shape

Cc1ccc(C)c(C)c1 [1,2,4-trimethylbenzene] + COC(=O)OC
[1]
Settings	mass density [kg/m3]	surface tension liquid-gas [mN/m]
298.15 K, x2 = 0	871.64	29.29
298.15 K, x2 = 0.0499	876.93	–
298.15 K, x2 = 0.0999	882.55	28.93
298.15 K, x2 = 0.15	888.53	–
298.15 K, x2 = 0.2	894.76	28.64
298.15 K, x2 = 0.2498	901.22	–
298.15 K, x2 = 0.2995	908.07	–
298.15 K, x2 = 0.3001	–	28.34
298.15 K, x2 = 0.3502	915.53	–
298.15 K, x2 = 0.4001	923.26	28.21
298.15 K, x2 = 0.45	931.35	–
298.15 K, x2 = 0.5	939.96	28.08
298.15 K, x2 = 0.55	949.04	–
298.15 K, x2 = 0.5998	958.57	–
298.15 K, x2 = 0.65	968.9	–
298.15 K, x2 = 0.6999	979.71	–
298.15 K, x2 = 0.7497	991.22	–
298.15 K, x2 = 0.7997	1003.68	–
298.15 K, x2 = 0.8501	1017.1	–
298.15 K, x2 = 0.8999	1031.25	–
298.15 K, x2 = 0.9498	1046.57	–
313.15 K, x2 = 0	859.5	27.67
313.15 K, x2 = 0.0505	864.72	–
313.15 K, x2 = 0.1008	–	27.23
313.15 K, x2 = 0.1012	870.23	–
313.15 K, x2 = 0.15	875.75	–
313.15 K, x2 = 0.1999	–	26.82
313.15 K, x2 = 0.2008	881.92	–
313.15 K, x2 = 0.2491	887.96	–
313.15 K, x2 = 0.2996	–	26.51
313.15 K, x2 = 0.3003	894.87	–
313.15 K, x2 = 0.3498	901.76	–
313.15 K, x2 = 0.3991	–	26.29
313.15 K, x2 = 0.401	909.43	–
313.15 K, x2 = 0.4509	917.26	–
313.15 K, x2 = 0.5	–	26.11
313.15 K, x2 = 0.5008	925.59	–
313.15 K, x2 = 0.5507	934.32	–
313.15 K, x2 = 0.5998	943.46	–
313.15 K, x2 = 0.65	953.33	–
313.15 K, x2 = 0.6995	963.85	–
313.15 K, x2 = 0.7505	975.23	–
313.15 K, x2 = 0.7994	986.99	–
313.15 K, x2 = 0.8502	1000	–
313.15 K, x2 = 0.8976	1013.08	–
313.15 K, x2 = 0.9504	1028.72	–

COC(=O)OC [dimethyl carbonate]
[2]
Settings	mass density [kg/m3]
298.15 K	1062.97
313.15 K	1044.63

COC(=O)OC [dimethyl carbonate] + Cc1ccc(C)c(C)c1
[1], x1 = 1
Settings	mass density [kg/m3]
298.15 K	1062.97
313.15 K	1044.63

Cc1ccc(C)c(C)c1 [1,2,4-trimethylbenzene] + CCOC(=O)OCC
[1]
Settings	mass density [kg/m3]	surface tension liquid-gas [mN/m]
298.15 K, x2 = 0	871.64	29.29
298.15 K, x2 = 0.0501	875.81	–
298.15 K, x2 = 0.1005	880.1	28.85
298.15 K, x2 = 0.1497	884.28	–
298.15 K, x2 = 0.1994	888.62	28.41
298.15 K, x2 = 0.2518	893.23	–
298.15 K, x2 = 0.2998	897.55	27.98
298.15 K, x2 = 0.3499	902.17	–
298.15 K, x2 = 0.4001	–	27.58
298.15 K, x2 = 0.4004	906.89	–
298.15 K, x2 = 0.4496	911.54	–
298.15 K, x2 = 0.5	916.38	27.23
298.15 K, x2 = 0.5494	921.22	–
298.15 K, x2 = 0.5997	926.24	–
298.15 K, x2 = 0.6497	931.3	–
298.15 K, x2 = 0.6998	936.41	–
298.15 K, x2 = 0.7505	941.72	–
298.15 K, x2 = 0.8001	947	–
298.15 K, x2 = 0.8499	952.36	–
298.15 K, x2 = 0.9	957.82	–
298.15 K, x2 = 0.95	963.45	–
313.15 K, x2 = 0	859.5	27.67
313.15 K, x2 = 0.0508	863.46	–
313.15 K, x2 = 0.1	–	27.16
313.15 K, x2 = 0.1005	867.43	–
313.15 K, x2 = 0.1486	871.36	–
313.15 K, x2 = 0.2002	–	26.69
313.15 K, x2 = 0.2012	875.71	–
313.15 K, x2 = 0.2507	879.88	–
313.15 K, x2 = 0.3005	–	26.23
313.15 K, x2 = 0.3007	884.17	–
313.15 K, x2 = 0.352	888.61	–
313.15 K, x2 = 0.3997	–	25.81
313.15 K, x2 = 0.4006	892.94	–
313.15 K, x2 = 0.4499	897.37	–
313.15 K, x2 = 0.4981	901.79	–
313.15 K, x2 = 0.5001	–	25.49
313.15 K, x2 = 0.5498	906.6	–
313.15 K, x2 = 0.597	911.06	–
313.15 K, x2 = 0.6481	915.93	–
313.15 K, x2 = 0.699	920.93	–
313.15 K, x2 = 0.7499	925.98	–
313.15 K, x2 = 0.8002	931.06	–
313.15 K, x2 = 0.8473	935.87	–
313.15 K, x2 = 0.9001	941.45	–
313.15 K, x2 = 0.9499	946.74	–

Cc1cc(C)cc(C)c1 [1,3,5-trimethylbenzene] + CCOC(=O)OCC
[1]
Settings	mass density [kg/m3]	surface tension liquid-gas [mN/m]
298.15 K, x2 = 0	861.04	28.09
298.15 K, x2 = 0.05	865.43	–
298.15 K, x2 = 0.1	869.94	27.71
298.15 K, x2 = 0.15	874.61	–
298.15 K, x2 = 0.1999	879.3	27.37
298.15 K, x2 = 0.2501	884.12	–
298.15 K, x2 = 0.2999	889.01	27.01
298.15 K, x2 = 0.3498	893.96	–
298.15 K, x2 = 0.3999	899.08	26.76
298.15 K, x2 = 0.4499	904.28	–
298.15 K, x2 = 0.5006	909.64	26.56
298.15 K, x2 = 0.5497	914.93	–
298.15 K, x2 = 0.6001	920.47	–
298.15 K, x2 = 0.6498	926.07	–
298.15 K, x2 = 0.7007	931.9	–
298.15 K, x2 = 0.7495	937.62	–
298.15 K, x2 = 0.8004	943.71	–
298.15 K, x2 = 0.849	949.64	–
298.15 K, x2 = 0.9001	956.06	–
298.15 K, x2 = 0.9501	962.49	–
313.15 K, x2 = 0	848.73	26.82
313.15 K, x2 = 0.0502	852.95	–
313.15 K, x2 = 0.0997	–	26.36
313.15 K, x2 = 0.1001	857.31	–
313.15 K, x2 = 0.1497	861.7	–
313.15 K, x2 = 0.1995	–	25.95
313.15 K, x2 = 0.201	866.26	–
313.15 K, x2 = 0.248	870.64	–
313.15 K, x2 = 0.2987	875.33	–
313.15 K, x2 = 0.2997	–	25.57
313.15 K, x2 = 0.3417	879.45	–
313.15 K, x2 = 0.4001	–	25.22
313.15 K, x2 = 0.4009	885.2	–
313.15 K, x2 = 0.4487	889.94	–
313.15 K, x2 = 0.5001	–	24.93
313.15 K, x2 = 0.5005	895.18	–
313.15 K, x2 = 0.5501	900.3	–
313.15 K, x2 = 0.5995	905.52	–
313.15 K, x2 = 0.651	911.05	–
313.15 K, x2 = 0.6995	916.4	–
313.15 K, x2 = 0.7495	921.97	–
313.15 K, x2 = 0.8004	927.84	–
313.15 K, x2 = 0.8501	933.7	–
313.15 K, x2 = 0.9001	939.69	–
313.15 K, x2 = 0.9501	945.76	–

Cc1cc(C)cc(C)c1 [1,3,5-trimethylbenzene] + COC(=O)OC
[1]
Settings	mass density [kg/m3]	surface tension liquid-gas [mN/m]
298.15 K, x2 = 0	861.04	28.09
298.15 K, x2 = 0.054	867.08	–
298.15 K, x2 = 0.1048	872.95	27.91
298.15 K, x2 = 0.1518	878.8	–
298.15 K, x2 = 0.1998	885.1	27.6
298.15 K, x2 = 0.2491	891.85	–
298.15 K, x2 = 0.3001	899.28	27.43
298.15 K, x2 = 0.3496	906.77	–
298.15 K, x2 = 0.3999	–	27.32
298.15 K, x2 = 0.4001	914.84	–
298.15 K, x2 = 0.4499	923.32	–
298.15 K, x2 = 0.4999	932.32	27.34
298.15 K, x2 = 0.5508	942.03	–
298.15 K, x2 = 0.5977	951.57	–
298.15 K, x2 = 0.6488	962.47	–
298.15 K, x2 = 0.7	974.17	–
298.15 K, x2 = 0.7514	986.83	–
298.15 K, x2 = 0.7999	999.6	–
298.15 K, x2 = 0.85	1013.67	–
298.15 K, x2 = 0.8999	1028.84	–
298.15 K, x2 = 0.9499	1045.18	–
313.15 K, x2 = 0	848.73	26.82
313.15 K, x2 = 0.0505	854.19	–
313.15 K, x2 = 0.1009	–	26.42
313.15 K, x2 = 0.1046	860.31	–
313.15 K, x2 = 0.15	865.69	–
313.15 K, x2 = 0.1994	–	26.04
313.15 K, x2 = 0.2007	872.13	–
313.15 K, x2 = 0.2489	878.45	–
313.15 K, x2 = 0.2985	885.42	–
313.15 K, x2 = 0.2996	–	25.8
313.15 K, x2 = 0.35	892.95	–
313.15 K, x2 = 0.3983	900.54	–
313.15 K, x2 = 0.4016	–	25.63
313.15 K, x2 = 0.4498	908.93	–
313.15 K, x2 = 0.5001	917.76	–
313.15 K, x2 = 0.5004	–	25.55
313.15 K, x2 = 0.5492	926.76	–
313.15 K, x2 = 0.5999	936.76	–
313.15 K, x2 = 0.6488	946.86	–
313.15 K, x2 = 0.6992	958.18	–
313.15 K, x2 = 0.7489	969.98	–
313.15 K, x2 = 0.7995	982.91	–
313.15 K, x2 = 0.8479	996.11	–
313.15 K, x2 = 0.8997	1011.33	–
313.15 K, x2 = 0.9501	1027.37	–

COC(=O)OC [dimethyl carbonate] + Cc1cc(C)cc(C)c1
[1], x1 = 1
Settings	mass density [kg/m3]
298.15 K	1062.97
313.15 K	1044.63

CCOC(=O)OCC [diethyl carbonate] + Cc1cc(C)cc(C)c1
[1], x1 = 1
Settings	mass density [kg/m3]
298.15 K	969.12
313.15 K	952.15

Cc1ccc(C)c(C)c1 [1,2,4-trimethylbenzene]
[2]
Settings	mass density [kg/m3]	surface tension liquid-gas [mN/m]
298.15 K	871.64	29.29
313.15 K	859.5	27.67

CCOC(=O)OCC [diethyl carbonate]
[2]
Settings	mass density [kg/m3]
298.15 K	969.12
313.15 K	952.15

CCOC(=O)OCC [diethyl carbonate] + Cc1ccc(C)c(C)c1
[1], x1 = 1
Settings	mass density [kg/m3]
298.15 K	969.12
313.15 K	952.15

Cc1cc(C)cc(C)c1 [1,3,5-trimethylbenzene]
[2]
Settings	mass density [kg/m3]	surface tension liquid-gas [mN/m]
298.15 K	861.04	28.09
313.15 K	848.73	26.82
